In patent US8748491B2, “Dietary and pharmaceutical compositions containing tricyclic diterpenes and their derivatives and their uses” (priority 2006, dated 2014) one finds IC50 data, which are given here for one molecule.

The structures appear in SMILES notation.

For assay [1], the target named is T1, Monoamine oxidase A (MAO-A) (Homo sapiens, UniProt P21397).
T1 sequence (P21397 1-527): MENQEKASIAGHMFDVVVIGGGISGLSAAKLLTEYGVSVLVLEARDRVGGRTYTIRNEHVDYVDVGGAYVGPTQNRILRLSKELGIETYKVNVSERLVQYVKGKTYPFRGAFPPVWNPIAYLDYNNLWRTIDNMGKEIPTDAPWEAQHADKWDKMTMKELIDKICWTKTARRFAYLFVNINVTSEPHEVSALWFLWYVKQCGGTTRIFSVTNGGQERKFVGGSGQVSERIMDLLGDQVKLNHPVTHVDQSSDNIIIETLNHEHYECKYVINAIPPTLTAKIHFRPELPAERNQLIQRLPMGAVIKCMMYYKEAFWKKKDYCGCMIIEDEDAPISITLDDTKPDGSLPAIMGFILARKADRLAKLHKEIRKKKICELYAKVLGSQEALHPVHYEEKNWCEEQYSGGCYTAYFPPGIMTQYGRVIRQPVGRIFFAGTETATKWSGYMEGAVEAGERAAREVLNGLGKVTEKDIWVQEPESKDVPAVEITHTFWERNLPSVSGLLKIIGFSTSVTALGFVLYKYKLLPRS
Kind of assay: Monoamine oxidase A inhibition (p-tyramine substrate, H2O2/vanillic acid/HRP readout). It counts as biochemical. On the procedure: (§1) The organic amines p-tyramine or benzylamine were used as substrates for the Monoamine oxidase A (MAO-A) and B (MAO-B) enzymes respectively. The H2O2 produced by this reaction was quantified by reaction with vanillic acid, catalysed by horse radish peroxidase (HRP).
(§2) The reactions were carried out in polystyrene microtitre plates. The MAO enzymes (final concentration 2 U/ml) were mixed with either p-tyramine (Sigma, final concentration 0.5 mM) or benzylamine (Sigma, final concentration 0.5 mM) as appropriate and the chromogenic solution (containing vanillic acid (Fluka), 4-aminoantipyrine (Fluka) and horse radish peroxidase (Sigma), final concentrations 0.25 mM, 0.125 mM and 1 U/ml respectively) in 0.2 M potassium phosphate buffer, pH 7.6. The reactions were followed in a microtitre plate absorbance reader e.g. Spectramax M5 (Molecular Devices Corporation). Absorbance readings at 495 nm were taken every 15 seconds for 40 minutes and the initial reaction velocities calculated by linear regression using SOFTmaxPro (Molecular Devices Corporation).
(§3) The effect of tricyclic diterpenes and their derivatives according to formula I on the monoamine oxidase enzymes was determined by their inclusion in the assay at a range of concentrations between 0.03 and 100 μM for 10 minutes prior to and during the incubation with substrate. To determine the effect of the compounds on the HRP catalyzed portion of the reaction, the MAO enzyme was replaced by H2O2 (Molecular Probes, final concentration 0.2 mM). The reactions containing MAO-A and MAO-B were both inhibited by tricyclic diterpenes and their derivatives according to formula I in a dose-dependent manner, whilst the control reaction, was unaffected. The measured IC50 values for inhibition of monoamine oxidase activity by carnosic acid, carnosic acid-12-methyl ether and 20-deoxo-carnosol are shown in Table 3.

The target in assay [2] is T2, Monoamine oxidase B (MAO-B) (Homo sapiens, UniProt P27338).
T2 sequence (P27338 1-520): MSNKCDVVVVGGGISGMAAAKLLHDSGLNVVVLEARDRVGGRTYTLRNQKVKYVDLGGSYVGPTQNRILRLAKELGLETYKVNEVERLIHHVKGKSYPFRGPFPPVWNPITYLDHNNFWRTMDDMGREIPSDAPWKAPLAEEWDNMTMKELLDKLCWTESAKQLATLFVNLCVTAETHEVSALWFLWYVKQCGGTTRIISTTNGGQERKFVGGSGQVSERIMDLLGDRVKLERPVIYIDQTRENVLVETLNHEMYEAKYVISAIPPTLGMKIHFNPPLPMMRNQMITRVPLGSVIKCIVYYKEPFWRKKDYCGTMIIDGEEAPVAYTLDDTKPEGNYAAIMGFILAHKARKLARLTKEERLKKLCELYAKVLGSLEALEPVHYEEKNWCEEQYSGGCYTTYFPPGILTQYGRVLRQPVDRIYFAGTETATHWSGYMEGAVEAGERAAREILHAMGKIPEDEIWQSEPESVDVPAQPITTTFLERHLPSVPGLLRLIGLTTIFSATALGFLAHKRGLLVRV
Kind of assay: Monoamine oxidase B inhibition (benzylamine substrate, H2O2/vanillic acid/HRP readout). In kind it is biochemical. As to the method:
as §1, §2, §3

The term IC50 denotes the concentration that inhibits the measured activity by half. Higher therefore signals a need for much substance. For `CC(C)c1cc2c(c(O)c1O)[C@@]1(C(=O)O)CCCC(C)(C)[C@@H]1CC2` [Carnosic acid, carnosic acid], the IC50 came out at 4.4 ± 0.3 µM in assay [1] and 8.6 ± 0.6 µM in assay [2].
